Data from US20130316998A1, “METHOD FOR TREATING PANCREATIC CANCER” (Niiki Pharma Acquisition Corp. 2, priority 2010, published 2013).

How the values were obtained:
[1] = tested on: PANC-1 cells; conditions: Guo et al. 2009; Durkin et al. 2003; cited from earlier work
[2] = tested on: advanced-stage pancreatic cancer; conditions: erlotinib in combination with gemcitabine; Moore et al. 2007; cited from earlier work
[3] = tested on: Capan-1 cell line; assay: ATCC's MTT Cell Proliferation Assay, Capan-1; assay type: cell-based, human; conditions: Capan-1, 72 hours post-treatment
Protocol: (§1) To test the activities of tris(8-quinolinolato)gallium(III), ATCC's MTT Cell Proliferation Assay® was performed using human pancreatic cancer cell lines PANC-1, BxPC-3, and Capan-1. Stock cultures were allowed to grow to 70-80% confluence for this study. The anti-proliferative activity of tris(8-quinolinolato)gallium(III), against the indicated cell lines was evaluated in vitro using the ATCC's MTT Cell Proliferation Assay (Catalog No. 30-1010K). PANC-1 was grown using DMEM, 10% fetal bovine serum (FBS), 1% of pen/strep/glutamine (PSG) and was seeded with 6E+03 cells/well. […] The plates were left overnight at room temperature in the dark and was read on a plate reader using SoftMax® Pro (version 5.2, Molecular Devices).
(§2) The absorbance data was analyzed as follows: Absorbance values were converted to Percent of Control and plotted against test agent concentrations for IC50 calculations using SoftMax® Pro (version 5.2, Molecular Devices). […] Percent of Control values were calculated by dividing the absorbance values for each test well by the No Drug Control average (column 11 values; cells+vehicle control) and multiplying by 100. Plots of Compound Concentration versus Percent of Control were analyzed using the 4-parameter equation to obtain IC50 values and other parameters that describe the sigmoidal dose response curve. […]

[4] = tested on: BxPC-3 cell line; assay: ATCC's MTT Cell Proliferation Assay, BxPC-3; assay type: cell-based, human; conditions: BxPC-3, 72 hours post-treatment
Protocol: as §1, §2

[5] = tested on: PANC-1 cell line; assay: ATCC's MTT Cell Proliferation Assay, PANC-1; assay type: cell-based, human
Protocol: as §1, §2

[6] = tested on: pancreatic tumor cell line MIA PaCa2; assay: MTT assay in 3-dimentional tumor model (HuBiogel) derived from MIA PaCa2; assay type: cell-based; conditions: 3-D HuBiogel tumor beads
Protocol: (§3) The compound tris(8-quinolinolato)gallium(III) was tested in a 3-dimentional tumor model derived from pancreatic tumor cell line MIA PaCa2. Specifically, cells were trypsinized, washed, counted by trypan blue exclusion. Tumor beads were then prepared by mixing 20,000 cells/100 of HuBiogel (4 mg/mL) (See U.S. patent application Ser. No. 10/546,506, which is incorporated herein by reference). The 3-D tumor beads were cultivated for 72 hours in multi-well plates with complete media (10% FBS) in a 37° C. incubator +5% CO2. Mini-tumors were treated with various concentrations of the test compound tris(8-quinolinolato)gallium(III) in media (final 0.2-0.3% DMSO) or control (DMSO). Repeated drug treatment was done by removing the culture media and replacing with fresh media with drug compound or DMSO. On Day 3, MTT assay and live-cell staining with Calcein AM were performed (5 beads/assay set).
(§4) Statistical analysis of data sets (Average, T-test, GI-50) was performed using MS-Excel program. The average GI-50 (the drug concentration required for growth inhibition at 50%) is […].

[7] = tested on: pancreatic tumor cell line MIA PaCa2; assay: live-cell staining with Calcein AM / image analysis in 3-D tumor beads; assay type: cell-based; conditions: 3-D HuBiogel tumor beads, Day 3
Protocol: as §3, §4

Row | SMILES | resistance of PANC-1 cells to the drug [1] | median overall survival benefit [2] | IC50 [3] | IC50 [4] | activity in pancreatic cancer cells resistant to gemcitabine and/or erlotinib ([5]; PANC-1) | IC50 ([5]; PANC-1, 72 hours post-treatment, MTT) | GI50 ([6]; MTT assay on Day 3, read-out: average GI-50 (the drug concentration required for growth inhibition at 50%)) | tumor proliferation activity ([6]; MTT assay, FIG. 1) | tumor killing in live-cell staining/image analysis [7]
1 | C#Cc1cccc(Nc2ncnc3cc(OCCOC)c(OCCOC)cc23)c1 [erlotinib] | resistant | less than four weeks | – | – | – | – | – | – | –
2 | Nc1ccn([C@@H]2O[C@H](CO)[C@@H](O)C2(F)F)c(=O)n1 [gemcitabine] | resistant | – | – | – | – | – | – | – | –
3 | [Ga+3].[O-]c1cccc2cccnc12.[O-]c1cccc2cccnc12.[O-]c1cccc2cccnc12 [tris(8-quinolinolato)gallium(III)] | – | – | 8.17 µM | 0.0032 µM | active | 1.03 µM | 35.7 µM | significantly inhibited tumor proliferation activity | dose-dependent tumor killing
